Data reported in patent publication US12667571B2, “Uridine phosphorylase (UPase) inhibitors for treatment of liver conditions” (Tosk, Inc., priority 2019, dated 2026).
“Also recorded” adds a separate entry of the source.

Key:
plasma UR = experiment: Plasma UR concentration versus plasma Compound 1 concentration after continuous sc osmotic-pump infusion; format: in vivo; details: BDF-1 male mice, result in words
Procedure: For this reason continuous infusion of compound I (authentic TK-112690, Batch TCY90108) to BDF-1 ♂ mice were administered via a sc implanted osmotic pumps and the UR plasma concentration measured, ^46 Deng Y, Wang Z V, Gordillo R, An Y, Zhang C, Liang Q, Yoshino J, Cautivo K M, De Brabander J, Elrnquist J K, Horton J D, Hill J A, Klein S, Scherer P E. An adipo-biliary-uridine axis that regulates energy homeostasis. Science 2017, 17; 355(6330)
Solutions of Compound I were prepared at a concentration of 500 mg/mL in sterile PBS. Osmotic pumps (ALZET® micro-osmotic pump 2001 D and 1003D, Alza Co) were loaded with 200 μL (2001D osmotic pump) and/or 100 μL (1003D osmotic pump) of TK-112690 solution.
BDF-1 male mice (n=6) were treated with a constant-rate infusion of 667, 833 or 3000 mg/kg/day doses of Compound I delivered via subcutaneously implanted osmotic pumps. Animals were anesthetized with 100 mg/kg ketamine prior to pump implantation. Surgical scissors were used to make an approximately 1 cm incision on the dorsal surface near the shoulder blade of animals. A hemostat was used to carve out a subcutaneous tunnel toward the anterior end of animal. Osmotic pumps were placed inside the subcutaneous tunnel. […]
A solid-phase extraction (SPE) of analytes (UR, Compound I and 5-FU) from plasma was conducted before HPLC analysis. […] Samples were transferred into fresh HPLC vials and analyzed. […]

[1] = test system: C57BL/6 mice fed an MCD diet; experiment: Methionine-choline deficient diet (MCD) model of NASH; format: in vivo; details: end of MCD study; ip bid 28 days
Procedure: Mice fed an MCD diet is a standard model of diet induced NASH.^47,48 All animals were housed in ventilated standard housing cages throughout the experimental phase. Tap water was provided ad libitum to all animals. Male, 8-week old, C57BL/6 mice from Charles River were acclimated for 3 days maintained on a standard chow diet and group housed in hepa-filtered cages (5 animals per cage) on a normal 12 hours light cycle (at 8 am to 8 pm lights off). The temperature and humidity were 22±2° C. and 50±10%, respectively. Cages litters were changed once a week. ^47 Reid D T, Reyes J L, McDonald B A, Vo T, Reimer R A, Eksteen B. Kupffer Cells Undergo Fundamental Changes during the Development of Experimental NASH and Are Critical in Initiating Liver Damage and Inflammation. PLoS One. 2016, 25; 11:e0159524.^48 Ramadori P, Weiskirchen R, Trebicka J, Streetz K. Mouse models of metabolic liver injury. Lab Anim. 2015; 49(1 Suppl):47-58.
Following acclimation, the animals were randomized into homogenous treatment groups according to their body weight, and fed ad libitum a diet deficient in methionine and choline: 4.2 kcal/g; MP Biomedicals, Solon, OH). Food and water intake were measured 3 times per week (at the same time as body weight measurements). After the acclimation period, the 24 mice (n=6/treatment group) were weighed 3 times per week until sacrifice.
The 4 treatment group were: • Group 1: Vehicle+MCD • Group 2: MCD+200 mg/kg UR • Group 3: MCD+60 mg/kg Compound I • Group 4: MCD+60 mg/kg Compound 1 plus 200 mg/kg UR 30 minutes post Compound 1
All Compound 1 and UR doses (mg/kg in 10 mL/kg of vehicle) were ip, bid at least 8 hours apart, for 28 days. Vehicle=PBS. Vehicle, UR and Compound 1±UR will be dosed daily starting 2 days prior to placing the animals on a MCD diet. Mice were on the MCD diet for 26 days.
After 26 days on MCD, the animals were sacrificed ˜2 hours after the last dose and non-fasted glucose was measured along with a plasma lipid panel, TNF-α, ALT and AST. Total body weight was determined weekly. Total liver was weighed and the medial lobe excised, formalin fixed and stained with Oil Red O to evaluate lipid content. An intensity score for the fixed tissue slides measured by an independent histopathologist was also determined.

[2] = Elimination t1/2 of Compound 1 in mice; details: mouse, in vivo
[3] = test system: C57BL/6 mice fed an MCD diet; experiment: Methionine-choline deficient diet (MCD) model of NASH; format: in vivo; details: H&E liver sections, end of MCD study; ip bid 28 days; FIG. 4
[4] = UR, reference 46; cited from earlier work

With `Cc1cn2c(nc1=O)O[C@H]1[C@H](O)[C@@H](CO)O[C@H]12` [Compound 1] the “effect on plasma UR level” value (plasma UR) was “elevate plasma UR in a linear fashion; also recorded: associated with higher levels of UR”, the ALT [1] was “no difference” and the AST [1] was “no difference”. The cholesterol [1] was “no difference”, the total triglycerides [1] was “no difference” and the half-life [2] was 1 to 2 h. The “liver fibrosis scoring compared to vehicle treated controls” value [3] was “statistically different”.

For `O=c1ccn([C@@H]2O[C@H](CO)[C@@H](O)[C@H]2O)c(=O)[nH]1` [UR, uridine], the ALT [1] was “no difference”, the AST [1] was “no difference” and the cholesterol [1] was “no difference”. The total triglycerides [1] was “no difference”, the “liver fibrosis scoring compared to vehicle treated controls” value [3] was “statistically different” and the “elimination t1/2” value [4] was “only a few minutes”.
